The numbers were not newly measured in patent US20180250233A1, “TABLETS HAVING MEDIA INDEPENDENT ACTIVE SUBSTANCE DELIVERY” (MERCK PATENT GMBH, priority 2015, published 2018), which cites them from elsewhere.

Regarding `CC(C)NCC(O)COc1cccc2ccccc12` (centres unmarked) [propranolol], the elimination half-life (in vivo) was 2 to 6 h. For the same molecule, the bioavailability (oral administration, pronounced first-pass metabolism) is reported as 25-30%.
